In patent US7671077B2, “Neuroprotective small organic molecules, compositions and uses related thereto” (priority 2004, dated 2010):

System: midbrain dopaminergic neurons
Assay: Dopamine (DA) uptake assay in primary midbrain cultures
Format: cell-based, rat
Conditions: for activity at 1.25 µM: compound concentration 1.25 μM; for activity at 0.6 µM: compound concentration 0.6 μM; for activity at 5 µM: compound concentration 5 μM; for activity at 2.5 µM: compound concentration 2.5 μM; for activity at 10 µM: compound concentration 10 μM; for activity at 20 µM: compound concentration 20 μM; for activity at 40 µM: compound concentration 40 μM; for cytotoxicity in midbrain culture: 20 μM; for EC50: FIG. 36, read-out: half-maximal effective concentration (EC50) for DA uptake stimulation
Description: Primary midbrain cultures were prepared from rat embryo ventral mesencephalon as described previously by Lin et al (1994). In brief, rostral mesencephalic tegmentum of embryonic day 16 rat embryos was collected in DMEM/F12 (Hyclone SH30023.01) containing 2 mM glutamine on ice, The tissue was treated with 0.1% trypsin in Hanks' balanced salt solution (HBSS, Gibco 14175-095) for 15 min at 37° C. and dissociated mechanically by mild trituration with a fire-polished glass pipet in growth medium plus 2% heat-inactivated fetal bovine serum (FBS). The growth medium consisted of equal volumes of Dulbecco's minimal essential medium DMEM (Gibco 12100-046) and HAM's F12 nutrient mixture (Gibco 21700-075) supplemented with 33 mM glucose, 13 mM sodium bicarbonate, 5 mM HEPES, 2 mM glutamine, 25 μg/ml insulin, 100 μg/ml transferrin, 60 μM putrescine, 20 nM progesterone, 30 nM sodium selenite, 5 U/ml penicillin G and 5 μg/ml streptomycin. 24-well tissue culture plate was coated by adding 15 μg/ml poly-1-ornithine hydrobromide solution at 0.5 ml/well, incubated at room temperature for 1 hr. The coating solution was removed and the well washed 3 times with distilled water and one wash with HBSS. The dissociated cells were plated onto polyornithine-coated wells at 250,000-350,000 trypan blue-excluding viable cells per well in 500 μl of above medium containing 1% FBS. After 3 h when most of the cells had adhered to the bottom of the well, the medium was replaced with 500 μl of fresh medium without FBS. A serial dilution of the sample to be assayed for trophic activity was added to each well in duplicate at the time of medium change or within 24 h thereafter. Unless otherwise stated, cultures were incubated at 37° C. without any further medium change up to 7 days. Primary hindbrain cultures were prepared as described for the midbrain cultures except that the rostral raphe region (instead of the rostral mesencephalon) was dissected and trypsinized for 20 (instead of 15) min.
[^3H]DA uptake was measured in cultures at day 7, and all the solutions were maintained at 37° C. The growth medium was removed, and the cultures were rinsed twice with 0.25 ml of uptake buffer, which consists of HBSS (Gibco 11201-092) supplemented with 28 mM glucose, 15 mM HEPES, 1 mM ascorbic acid (an antioxidant), and […] pargyline (a monoamine oxidase inhibitor). The cultures were then incubated with 0.25 ml of fresh uptake buffer containing 50 nM [^3H]DA (NEN/DuPont) for 20 min at 37° C. [^3H]DA uptake was stopped by removing the incubation mixture, and cells were then washed twice with 0.5 ml of the uptake buffer at room temperature. To release [^3H]DA from the cells, the cultures were lysed with 0.2 ml of 0.1 N NaOH for 1 h at room temperature, the lysate was then added to 1 ml of Microscint-20 (Packard 6013621), and counted for radioactivity in a microplate scintillation counter (Packard TopCount, NXT). Background values were obtained by adding to the uptake buffer 0.5 mM GBR-12909, a specific inhibitor of the high-affinity uptake pump of the dopaminergic neurons, and were usually <5% of the ^3H uptake in untreated control cultures. Forskolin (Fk, 25 μM) was employed as a positive control.

[1] = Rattus norvegicus, Neuron, midbrain culture, read-out: DA uptake % of control
[2] = Rattus norvegicus, Neuron, midbrain culture

For `O=C(/C=C/c1cc(F)ccc1C(F)(F)F)Nc1ccc(S(=O)(=O)Nc2nccs2)cc1` [L″], the activity at 1.25 µM [1] was 375%.
Work on `O=C(/C=C/c1cccc(Cl)c1)Nc1ccc(S(=O)(=O)Nc2nccs2)cc1` [M] yielded an activity at 0.7 µM (Rattus norvegicus, Neuron, compound concentration 0.7 μM, midbrain culture, read-out: DA uptake % of control) of 120%.
For `O=C(/C=C/c1ccccc1Cl)Nc1ccc(S(=O)(=O)N2CCCCC2)cc1` [M′], the activity at 0.6 µM [1] was 145%.
`O=C(/C=C/c1cccc(O)c1)Nc1ccc(S(=O)(=O)Nc2ccccn2)cc1` [M′′′] was tested, and the activity at 5 µM [1] was 170%.
`O=C(/C=C/c1cccc(Br)c1)Nc1ccc(S(=O)(=O)Nc2nccs2)cc1` [M′′′′] showed an activity at 2.5 µM [1] of 190%.
With `O=C(/C=C/c1ccccc1C(F)(F)F)Nc1ccc(S(=O)(=O)Nc2nccs2)cc1` [M″] the activity at 1.25 µM [1] was 280%.
For `O=C(/C=C/c1ccc(Oc2ccccc2)cc1)Nc1ccc(S(=O)(=O)Nc2nccs2)cc1` [N], the activity at 2.5 µM [1] was 170%.
`Cc1ccc(/C=C/C(=O)Nc2ccc(S(=O)(=O)Nc3onc(C)c3C)cc2)cc1` [N′] was tested, and the activity at 2.5 µM [1] was 155%.
Molecule `COc1cccc(/C=C/C(=O)Nc2ccc(S(=O)(=O)Nc3ccccn3)cc2)c1` [N′′′] has an activity at 10 µM [1] of 180%.
With `O=C(Nc1ccc(S(=O)(=O)Nc2nccs2)cc1)c1cc2ccccc2s1` [N′′′′] the activity at 2.5 µM [1] was 170%.
In the case of `O=C(/C=C/c1ccoc1)Nc1ccc(S(=O)(=O)Nc2nccs2)cc1` [N″], the activity at 20 µM [1] is reported as 240%.
`O=C(/C=C/c1ccc(F)cc1)Nc1ccc(S(=O)(=O)Nc2nccs2)cc1` [O] was tested, and the activity at 20 µM [1] was 240%.
`Cc1ccc(/C=C/C(=O)Nc2ccc(S(=O)(=O)Nc3nc(C)cc(C)n3)cc2)cc1` [O′] showed an activity at 2.5 µM [1] of 150%.
Molecule `O=C(/C=C/c1ccccc1O)Nc1ccc(S(=O)(=O)Nc2ccccn2)cc1` [O′′′] has an activity at 10 µM [1] of 150%.
`O=C(Nc1ccc(S(=O)(=O)Nc2nccs2)cc1)/C(F)=C/c1ccccc1` [O′′′′] showed an activity at 10 µM [1] of 200%.
For `O=C(/C=C/c1ccc(Br)cc1)Nc1ccc(S(=O)(=O)Nc2nccs2)cc1` [O″], the activity at 2.5 µM [1] was 290%.
With `O=C(Nc1ccc(S(=O)(=O)Nc2nccs2)cc1)c1ccc(Br)cc1` [P] the activity at 5 µM [1] was 160%.
With `CCCOc1ccc(/C=C/C(=O)Nc2ccc(S(=O)(=O)Nc3nccs3)cc2)cc1OC` [P′] the activity at 1.25 µM [1] was 210%.
`O=C(/C=C/c1ccccc1O)Nc1ccc(S(=O)(=O)Nc2nccs2)cc1` [P′′′] was tested, and the activity at 10 µM [1] was 150%.
In the case of `O=C(/C=C/c1ccccc1[N+](=O)[O-])Nc1ccc(S(=O)(=O)Nc2nccs2)cc1` [P′′′′], the activity at 2.5 µM [1] is reported as 150%.
`COc1ccccc1/C=C/C(=O)Nc1ccc(S(=O)(=O)Nc2ccccn2)cc1` [P″] was tested, and the activity at 5 µM [1] was 200%.
`COc1ccc(/C=C/C(=O)Nc2ccc(S(=O)(=O)Nc3cc(C)nc(C)n3)cc2)cc1Br` [Q] gave an activity at 2.5 µM [1] of 140%.
Molecule `O=C(CCN1C(=O)S/C(=C\c2ccccc2)C1=O)Nc1ccc(S(=O)(=O)Nc2nccs2)cc1` [Q′] has an activity at 5 µM [1] of 180%.
In the case of `O=C(/C=C/c1ccccc1)Nc1ccc(S(=O)(=O)Nc2nnc[nH]2)cc1` [Q′′′], the activity at 5 µM [1] is reported as 170%.
With `O=C(/C=C/c1ccc(F)cc1C(F)(F)F)Nc1ccc(S(=O)(=O)Nc2nc[nH]n2)cc1` [Q″] the activity at 2.5 µM [1] was 270%.
In the case of `Cc1ccc(C(=O)Nc2ccc(S(=O)(=O)Nc3nccs3)cc2)cc1` [R], the activity at 20 µM [1] is reported as 140%.
With `COc1ccc(/C=C2\SC(=O)N(CCC(=O)Nc3ccc(S(=O)(=O)Nc4nccs4)cc3)C2=O)cc1` [R′] the activity at 2.5 µM [1] was 155%.
With `COc1cccc(/C=C/C(=O)Nc2ccc(S(=O)(=O)Nc3nnc[nH]3)cc2)c1` [R′′′] the activity at 1.25 µM [1] was 150%.
In the case of `CCOc1ccccc1/C=C/C(=O)Nc1ccc(S(=O)(=O)Nc2nccs2)cc1` [R′′′′], the activity at 2.5 µM [1] is reported as 170%.
For `CCc1ccccc1/C=C\C(=O)Nc1ccc(S(=O)(=O)Nc2nc[nH]n2)cc1` [R″], the activity at 5 µM [1] was 290%.
With `Cc1ccnc(NS(=O)(=O)c2ccc(NC(=O)/C=C/c3cccc(Cl)c3)cc2)n1` [S] the activity at 1.4 µM (Rattus norvegicus, Neuron, compound concentration 1.4 μM, midbrain culture, read-out: DA uptake % of control) was 220%.
`O=C(CCN1C(=O)S/C(=C\c2ccc(Cl)cc2)C1=O)Nc1ccc(S(=O)(=O)Nc2nccs2)cc1` [S′] showed an activity at 1.25 µM [1] of 150%.
`COc1ccc(/C=C/C(=O)Nc2ccc(S(=O)(=O)Nc3nnc[nH]3)cc2)cc1` [S′′′] was tested, and the activity at 10 µM [1] was 190%.
`CCOc1cccc(/C=C/C(=O)Nc2ccc(S(=O)(=O)Nc3nccs3)cc2)c1` [S′′′′] was tested, and the activity at 5 µM [1] was 170%.
Work on `O=C(/C=C/c1cccc(F)c1)Nc1ccc(S(=O)(=O)Nc2nc[nH]n2)cc1` [S″] yielded an activity at 2.5 µM [1] of 280%.
`Cc1cccc(C(=O)Nc2ccc(S(=O)(=O)Nc3nccs3)cc2)c1` [T] gave an activity at 10 µM [1] of 140%.
`O=C(Nc1ccc(S(=O)(=O)Nc2nccs2)cc1)c1sc2cc(Cl)ccc2c1Cl` [T′] showed an activity at 0.6 µM [1] of 140%.
`O=C(/C=C/c1ccccc1)Nc1ccc(S(=O)(=O)Nc2nncs2)cc1` [T′′′] showed an activity at 40 µM [1] of 150%.
Molecule `O=C(/C=C/c1ccc([N+](=O)[O-])cc1)Nc1ccc(S(=O)(=O)Nc2nccs2)cc1` [T′′′′] has an activity at 5 µM [1] of 180%.
For `Cc1ccccc1/C=C/C(=O)Nc1ccc(S(=O)(=O)Nc2nccs2)cc1` [T″], the activity at 2.5 µM [1] was 230%.
Work on `CCc1nnc(NS(=O)(=O)c2ccc(NC(=O)/C=C/c3ccc(OC)cc3OC)cc2)s1` [U] yielded an activity at 10 µM [1] of 150%.
`CC(C)(C)c1cc(Br)ccc1OCC(=O)Nc1ccc(S(=O)(=O)Nc2nccs2)cc1` [U′] gave an activity at 0.6 µM [1] of 140%.
`O=C(/C=C/c1ccccc1Cl)Nc1ccc(S(=O)(=O)Nc2nncs2)cc1` [U′′′] gave an activity at 10 µM [1] of 180%.
`O=C(/C=C/c1c(Cl)cccc1Cl)Nc1ccc(S(=O)(=O)Nc2nccs2)cc1` [U′′′′] was tested, and the activity at 1.25 µM [1] was 290%.
`O=C(/C=C/c1ccccc1Br)Nc1ccc(S(=O)(=O)Nc2ccccn2)cc1` [U″] showed an activity at 2.5 µM [1] of 210%.
`O=C(Nc1ccc(S(=O)(=O)Nc2nccs2)cc1)c1cccc(C(F)(F)F)c1` [V] was tested, and the activity at 10 µM [1] was 220%.
For `O=C(Nc1ccc(S(=O)(=O)Nc2nccs2)cc1)c1cncc(Br)c1` [V′], the activity at 40 µM [1] was 130%.
Work on `O=C(/C=C/c1cccc(O)c1)Nc1ccc(S(=O)(=O)Nc2nncs2)cc1` [V′′′] yielded an activity at 2.5 µM [1] of 160%.
`O=C(/C=C/c1cccc(OC(F)(F)F)c1)Nc1ccc(S(=O)(=O)Nc2nccs2)cc1` [V′′′′] gave an activity at 1.25 µM [1] of 200%.
`O=C(/C=C/c1ccc(Cl)cc1Cl)Nc1ccc(S(=O)(=O)Nc2nccs2)cc1` [V″] showed an activity at 0.3 µM (Rattus norvegicus, Neuron, compound concentration 0.3 μM, midbrain culture, read-out: DA uptake % of control) of 250%.
In the case of `CCc1nnc(NS(=O)(=O)c2ccc(NC(=O)/C=C/c3ccc(F)cc3)cc2)s1` [W], the activity at 5 µM [1] is reported as 180%.
Molecule `CCCCCCCC(=O)Nc1ccc(S(=O)(=O)Nc2nccs2)cc1` [W′] has an activity at 10 µM [1] of 200%.
For `COc1ccccc1/C=C/C(=O)Nc1ccc(S(=O)(=O)NC(=N)/C=C(\C)O)cc1` [W′′′], the activity at 2.5 µM [1] was 140%.
`O=C(/C=C/c1ccc(F)cc1Cl)Nc1ccc(S(=O)(=O)Nc2nccs2)cc1` [W′′′′] was tested, and the activity at 1.25 µM [1] was 190%.
`O=C(/C=C/c1cc2c(cc1Br)OCO2)Nc1ccc(S(=O)(=O)Nc2nccs2)cc1` [W″] showed an activity at 1.25 µM [1] of 330%.
Molecule `CCc1nnc(NS(=O)(=O)c2ccc(NC(=O)c3ccc(Cl)cc3)cc2)s1` [X] has an activity at 20 µM [1] of 140%.
For `O=C(/C=C/c1ccc(Br)cc1)Nc1ccc(S(=O)(=O)Nc2nc[nH]n2)cc1` [X′], the “cytotoxicity in midbrain culture” value was “no cytotoxicity”, the activity at 0.6 µM [1] was 290% and the EC50 [2] was about 200 nM.
`C/C(O)=C\C(=N)NS(=O)(=O)c1ccc(NC(=O)/C=C/c2ccccc2)cc1` [X′′′] was tested, and the activity at 5 µM [1] was 140%.
In the case of `Cc1ccccc1/C=C/C(=O)Nc1ccc(S(=O)(=O)Nc2nc[nH]n2)cc1` [X′′′′], the activity at 1.25 µM [1] is reported as 260%.
`O=C(/C=C/c1cc(C(F)(F)F)ccc1C(F)(F)F)Nc1ccc(S(=O)(=O)Nc2nccs2)cc1` [X″] showed an activity at 1.25 µM [1] of 245%.
Work on `COc1ccc(/C=C/C(=O)Nc2ccc(S(=O)(=O)Nc3cc(C)nc(C)n3)cc2)cc1OC` [Y] yielded an activity at 40 µM [1] of 160%.
For `O=C(Nc1ccc(S(=O)(=O)Nc2nc[nH]n2)cc1)c1ccc2ccccc2c1` [Y′], the “cytotoxicity in midbrain culture” value was “no cytotoxicity”, the activity at 1.25 µM [1] was 290% and the EC50 [2] was about 200 nM.
